The values below come from US20250353812A1, “2,6-DIBENZYLIDENECYCLOHEXANONE OXIME COMPOUND AND PREPARATION METHOD THEREFOR AND USE THEREOF” (WENZHOU MEDICAL UNIVERSITY, priority 2022, published 2025).

Assay [1] relates to TNF-α. Put plainly: Inhibition of TNF-α release from J774A.1 macrophages stimulated by LPS (ELISA). The conditions noted are these: 10 μM compound pretreatment 2 h, then 0.5 μg/mL LPS 22 h, LPS control = 100, FIG. 2. The assay is classed as cell-based. The method, then: (§1) The present invention tested the dose-effect relationship of some of the compounds of Examples in inhibiting the release of IL-6 and TNF-α from J774A.1 macrophages stimulated by LPS. The specific method is as follows: 1.2×10^6 […] macrophages were cultured by DMEM culture solution at 37° C., the culture solution was renewed after 24 h, the tested example compound (at a final concentration of 10 μM) was added for pretreatment for 2 h and then continuously treated by 0.5 μg/mL of LPS for 22 h, the culture solution was collected, and the content of IL-6 and TNF-α was detected by ELISA method. The total protein concentration was measured by collecting cells, the ELISA results were divided by the corresponding total protein concentration and calibrated by the IL-6 and TNF-α content of LPS control group as 100, and the average and error values were calculated.
(In general: In an ELISA, binding on a coated surface is turned into a signal by an enzyme label.)

In assay [2] the test system is IL-6. Put plainly: Inhibition of IL-6 release from J774A.1 macrophages stimulated by LPS (ELISA). The assay is classed as cell-based. The conditions noted are these: 10 μM compound pretreatment 2 h, then 0.5 μg/mL LPS 22 h, LPS control = 100, FIG. 1. The procedure:
as §1

For the compound `COCCON=C1/C(=C/c2ccc(OC)cc2)CCC/C1=C\c1ccc(OC)cc1` [Example 35, 2,6-(E,E)-(4-(methoxy)benzylidene)cyclohexan-1-one-(2-methoxyethyl)oxime], the “inhibitory effect on the release of TNF-α” value (“inhibitory effect … of TNF-α” below) in assay [1] is on record as “significant inhibitory effect”. Moreover, in assay [2], the “inhibitory effect on the release of IL-6” value is listed as “significant inhibitory effect”. As for `CCCON=C1/C(=C/c2ccccc2)CCC/C1=C\c1ccccc1` [Example 32, 2,6-(E,E)-(benzylidene)cyclohexan-1-one propyl oxime], the “inhibitory effect … of TNF-α” value in assay [1] is listed as “significant inhibitory effect”. Besides, the “inhibitory effect on the release of IL-6” value in assay [2] was “significant inhibitory effect”. For `FC(F)(F)c1ccccc1/C=C1\CCC/C(=C\c2ccccc2C(F)(F)F)C1=NOCCCN1CCCC1` [Example 6, 2,6-(E,E)-(2-(trifluoromethyl)benzylidene)cyclohexan-1-one-3-(pyrrolidin-1-yl)propyl oxime], the “inhibitory effect on the release of IL-6” value in assay [2] was “significant inhibitory effect”.

For the compound `FC(F)(F)c1ccccc1/C=C1\CCC/C(=C\c2ccccc2C(F)(F)F)C1=NOCC1CCOCC1` [Example 28, 2,6-(E,E)-(2-(trifluoromethyl)benzylidene)cyclohexan-1-one-(tetrahydro-2H-pyran-4-yl) methyl oxime], in assay [1], the “inhibitory effect … of TNF-α” value is listed as “significant inhibitory effect”. Besides, the “inhibitory effect on the release of IL-6” value in assay [2] is reported as “significant inhibitory effect”.

On to `FC(F)(F)c1ccccc1/C=C1\CCC/C(=C\c2ccccc2C(F)(F)F)C1=NOCC1CCCC1` [Example 13, 2,6-(E,E)-(2-(trifluoromethyl)benzylidene)cyclohexan-1-one cyclopentylmethyl oxime], for which the “inhibitory effect on the release of IL-6” value in assay [2] is “significant inhibitory effect”. Regarding `FC(F)(F)c1ccccc1/C=C1\CCC/C(=C\c2ccccc2C(F)(F)F)C1=NOCc1c(Cl)cccc1Cl` [Example 20, 2,6-(E,E)-(2-(trifluoromethyl)benzylidene)cyclohexan-1-one-2,6-dichlorobenzyl oxime], the “inhibitory effect on the release of IL-6” value in assay [2] is given as “significant inhibitory effect”. `FC(F)(F)c1ccccc1/C=C1\CCC/C(=C\c2ccccc2C(F)(F)F)C1=NOCC1CCCO1` (stereo not shown) [Example 26, 2,6-(E,E)-(2-(trifluoromethyl)benzylidene)cyclohexan-1-one-((tetrahydrofuran-2-yl)methyl)oxime]: in assay [1], the “inhibitory effect … of TNF-α” value was “significant inhibitory effect”.

As for `Fc1cccc(CON=C2/C(=C/c3ccccc3C(F)(F)F)CCC/C2=C\c2ccccc2C(F)(F)F)c1` [Example 18, 2,6-(E,E)-(2-(trifluoromethyl)benzylidene)cyclohexan-1-one-3-fluorobenzyl oxime], in assay [2], the “inhibitory effect on the release of IL-6” value is “significant inhibitory effect”.

Turning to `Fc1ccc(CCON=C2/C(=C/c3ccccc3C(F)(F)F)CCC/C2=C\c2ccccc2C(F)(F)F)cc1` [Example 25, 2,6-(E,E)-(2-(trifluoromethyl)benzylidene)cyclohexan-1-one-4-(fluorophenethyl)oxime], in assay [1], the “inhibitory effect … of TNF-α” value was “significant inhibitory effect”. The “inhibitory effect on the release of IL-6” value in assay [2] is “significant inhibitory effect”. Turning to `FC(F)(F)c1ccccc1/C=C1\CCC/C(=C\c2ccccc2C(F)(F)F)C1=NOCC1OCCO1` [Example 27, 2,6-(E,E)-(2-(trifluoromethyl)benzylidene)cyclohexan-1-one-((1,3-dioxolan-2-yl)methyl)oxime], in assay [1], the “inhibitory effect … of TNF-α” value is “significant inhibitory effect”. In assay [2], the “inhibitory effect on the release of IL-6” value is “significant inhibitory effect”. In the case of `Oc1ccc(/C=C2\CCC/C(=C\c3ccc(O)cc3)C2=NOCC2CCCC2)cc1` [Example 37, 2,6-(E,E)-(4-(hydroxy)benzylidene)cyclohexan-1-one cyclopentylmethyl oxime], the “inhibitory effect … of TNF-α” value in assay [1] was “significant inhibitory effect”. In assay [2], the “inhibitory effect on the release of IL-6” value was “significant inhibitory effect”. Take `FC(F)(F)c1ccccc1/C=C1\CCC/C(=C\c2ccccc2C(F)(F)F)C1=NOCCN1CCCC1` [Example 5]: the “inhibitory effect on the release of IL-6” value in assay [2] is listed as “significant inhibitory effect”. As for `CC(C)ON=C1/C(=C/c2ccccc2F)CCC/C1=C\c1ccccc1F` [Example 33, 2,6-(E,E)-(2-(fluoro)benzylidene)cyclohexan-1-one isopropyl oxime], the “inhibitory effect … of TNF-α” value in assay [1] is on record as “significant inhibitory effect”. Further, the “inhibitory effect on the release of IL-6” value in assay [2] is given as “significant inhibitory effect”. Turning to `Fc1ccc(CON=C2/C(=C/c3ccccc3C(F)(F)F)CCC/C2=C\c2ccccc2C(F)(F)F)cc1` [Example 19, 2,6-(E,E)-(2-(trifluoromethyl)benzylidene)cyclohexan-1-one-4-fluorobenzyl oxime], the “inhibitory effect … of TNF-α” value in assay [1] is “significant inhibitory effect”. Regarding `Clc1ccc(/C=C2\CCC/C(=C\c3ccc(Cl)c(Cl)c3)C2=NOCCN2CCOCC2)cc1Cl` [Example 39, 2,6-(E,E)-(3,4-(dichloro)benzylidene)cyclohexan-1-one-2-(morpholinoethyl)oxime], in assay [1], the “inhibitory effect … of TNF-α” value is “significant inhibitory effect”. Further, in assay [2], the “inhibitory effect on the release of IL-6” value is on record as “significant inhibitory effect”. For the compound `Cc1cccc(CCON=C2/C(=C/c3ccccc3C(F)(F)F)CCC/C2=C\c2ccccc2C(F)(F)F)c1` [Example 22, 2,6-(E,E)-(2-(trifluoromethyl)benzylidene)cyclohexan-1-one-3-(methylphenylethyl)oxime], the “inhibitory effect … of TNF-α” value in assay [1] was “significant inhibitory effect”. Consider `CC(C)ON=C1/C(=C/c2ccccc2C(F)(F)F)CCC/C1=C\c1ccccc1C(F)(F)F` [Example 10, 2,6-(E,E)-(2-(trifluoromethyl)benzylidene)cyclohexan-1-one isopropyl oxime], for which the “inhibitory effect on the release of IL-6” value in assay [2] was “significant inhibitory effect”. In the case of `Fc1cccc(CCON=C2/C(=C/c3ccccc3C(F)(F)F)CCC/C2=C\c2ccccc2C(F)(F)F)c1` [Example 24, 2,6-(E,E)-(2-(trifluoromethyl)benzylidene)cyclohexan-1-one-3-(fluorophenethyl)oxime], the “inhibitory effect … of TNF-α” value in assay [1] is “significant inhibitory effect”. Regarding `CN1CCN(CCCON=C2/C(=C/c3ccccc3C(F)(F)F)CCC/C2=C\c2ccccc2C(F)(F)F)CC1` [Example 30, 2,6-(E,E)-(2-(trifluoromethyl)benzylidene)cyclohexan-1-one-(3-(4-methylpiperazin-1-yl)propyl)oxime], the “inhibitory effect on the release of IL-6” value in assay [2] is on record as “significant inhibitory effect”. With `FC(F)(F)c1ccccc1/C=C1\CCC/C(=C\c2ccccc2C(F)(F)F)C1=NOCCC1OCCO1` [Example 29], the “inhibitory effect … of TNF-α” value in assay [1] is “significant inhibitory effect”. Take `COc1cccc(CON=C2/C(=C/c3ccccc3C(F)(F)F)CCC/C2=C\c2ccccc2C(F)(F)F)c1` [Example 16, 2,6-(E,E)-(2-(trifluoromethyl)benzylidene)cyclohexan-1-one-3-methoxybenzyl oxime]: the “inhibitory effect on the release of IL-6” value in assay [2] is reported as “significant inhibitory effect”.

For `FC(F)(F)c1ccccc1/C=C1\CCC/C(=C\c2ccccc2C(F)(F)F)C1=NOCCN1CCOCC1` [Example 7, 2,6-(E,E)-(2-(trifluoromethyl)benzylidene)cyclohexan-1-one-2-(morpholinoethyl)oxime], the “inhibitory effect … of TNF-α” value in assay [1] is on record as “significant inhibitory effect”. Besides, the “inhibitory effect on the release of IL-6” value in assay [2] is recorded as “significant inhibitory effect”.
